# Experiments:
# human ORL-1 receptor = target: T1, human ORL-1 receptor (Homo sapiens, UniProt P41146); experiment: [35S]GTPγS functional assay with ORL-1 receptor membranes; assay type: biochemical; details: for Emax: [35S]GTPγS functional assay, NC = 100
# T1 construct: host or cells: recombinant HEK-293 cells
# Description: Filter plates were subsequently dried at 50° C. for 2-3 hours. […] 3.0.
# [1] = target: human opioid receptor-like (ORL-1) receptor (Homo sapiens, UniProt P41146); assay type: binding
# Sequence of human opioid receptor-like (ORL-1) receptor (P41146 whole entry): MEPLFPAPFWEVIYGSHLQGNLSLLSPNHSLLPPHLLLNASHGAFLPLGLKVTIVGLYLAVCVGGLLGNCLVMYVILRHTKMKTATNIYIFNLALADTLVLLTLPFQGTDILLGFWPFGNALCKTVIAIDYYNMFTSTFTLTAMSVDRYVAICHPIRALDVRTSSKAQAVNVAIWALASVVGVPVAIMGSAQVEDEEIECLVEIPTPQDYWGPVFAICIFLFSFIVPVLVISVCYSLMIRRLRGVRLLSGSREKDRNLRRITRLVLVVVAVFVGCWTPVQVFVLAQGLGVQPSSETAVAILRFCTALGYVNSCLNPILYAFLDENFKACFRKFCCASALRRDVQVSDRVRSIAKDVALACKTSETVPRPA
# T1 sequence (P41146 whole entry): as above
SMILES,Emax (human ORL-1 receptor) [%],affinity compared with NC [1],"agonist character at ORL-1 (human ORL-1 receptor; functional assay, in words)",potency compared with NC (human ORL-1 receptor; in words)
CC(C)C[C@H](NC(=O)[C@H](CCCCN)NC(=O)[C@H](CCCNC(=N)N)NC(=O)[C@H](C)NC(=O)[C@H](CO)NC(=O)[C@H](CCCCN)NC(=O)[C@H](CCCNC(=N)N)NC(=O)C(C)(C)NC(=O)CNC(=O)[C@@H](NC(=O)[C@H](Cc1ccccc1)NC(=O)CNC(=O)CNC(=O)[C@@H](N)Cc1ccccc1)[C@@H](C)O)C(=O)N[C@@H](C)C(=O)N[C@@H](CC(N)=O)C(=O)N[C@@H](CCC(N)=O)C(N)=O [IA],82,,,
CC(C)C[C@H](NC(=O)[C@H](CCCCN)NC(=O)[C@H](CCCNC(=N)N)NC(=O)C(C)(C)NC(=O)[C@H](CO)NC(=O)[C@H](CCCCN)NC(=O)[C@H](CCCNC(=N)N)NC(=O)[C@H](C)NC(=O)CNC(=O)[C@@H](NC(=O)[C@H](Cc1ccccc1)NC(=O)CNC(=O)CNC(=O)[C@@H](N)Cc1ccccc1)[C@@H](C)O)C(=O)N[C@@H](C)C(=O)N[C@@H](CC(N)=O)C(=O)N[C@@H](CCC(N)=O)C(N)=O [IIA],82,,,
CC(C)C[C@H](NC(=O)[C@H](CCCCN)NC(=O)[C@H](CCCNC(=N)N)NC(=O)[C@H](C)NC(=O)[C@H](CO)NC(=O)[C@H](CCCCN)NC(=O)[C@H](CCCNC(=N)N)NC(=O)[C@H](C)NC(=O)CNC(=O)[C@@H](NC(=O)[C@H](Cc1ccccc1)NC(=O)CNC(=O)CNC(=O)[C@@H](N)Cc1ccccc1)[C@@H](C)O)C(=O)NC(C)(C)C(=O)N[C@@H](CC(N)=O)C(=O)N[C@@H](CCC(N)=O)C(N)=O [IIIA],97,,,
CC(C)C[C@H](NC(=O)[C@H](CCCCN)NC(=O)[C@H](CCCNC(=N)N)NC(=O)[C@H](C)NC(=O)[C@H](CO)NC(=O)[C@H](CCCCN)NC(=O)[C@H](CCCNC(=N)N)NC(=O)[C@H](C)NC(=O)CNC(=O)[C@@H](NC(=O)[C@H](Cc1ccccc1)NC(=O)CNC(=O)CNC(=O)[C@@H](N)Cc1ccccc1)[C@@H](C)O)C(=O)NC(C)(C)C(=O)N[C@@H](CC(N)=O)C(=O)N[C@@H](CCC(N)=O)C(=O)O [III],91,,,
CC(C)C[C@H](NC(=O)[C@H](CCCCN)NC(=O)[C@H](CCCNC(=N)N)NC(=O)C(C)(C)NC(=O)[C@H](CO)NC(=O)[C@H](CCCCN)NC(=O)[C@H](CCCNC(=N)N)NC(=O)[C@H](C)NC(=O)CNC(=O)[C@@H](NC(=O)[C@H](Cc1ccccc1)NC(=O)CNC(=O)CNC(=O)[C@@H](N)Cc1ccccc1)[C@@H](C)O)C(=O)N[C@@H](C)C(=O)N[C@@H](CC(N)=O)C(=O)N[C@@H](CCC(N)=O)C(=O)O [II],96,,,
CC(C)C[C@H](NC(=O)[C@H](CCCCN)NC(=O)[C@H](CCCNC(=N)N)NC(=O)[C@H](C)NC(=O)[C@H](CO)NC(=O)[C@H](CCCCN)NC(=O)[C@H](CCCNC(=N)N)NC(=O)C(C)(C)NC(=O)CNC(=O)[C@@H](NC(=O)[C@H](Cc1ccccc1)NC(=O)CNC(=O)CNC(=O)[C@@H](N)Cc1ccccc1)[C@@H](C)O)C(=O)N[C@@H](C)C(=O)N[C@@H](CC(N)=O)C(=O)N[C@@H](CCC(N)=O)C(=O)O [I],97,,,
"CC(C)C[C@H](NC(=O)[C@H](CCCCN)NC(=O)[C@H](CCCNC(=N)N)NC(=O)C(C)(C)NC(=O)[C@H](CO)NC(=O)[C@H](CCCCN)NC(=O)[C@H](CCCNC(=N)N)NC(=O)C(C)(C)NC(=O)CNC(=O)[C@@H](NC(=O)[C@H](Cc1ccccc1)NC(=O)CNC(=O)CNC(=O)[C@@H](N)Cc1ccccc1)[C@@H](C)O)C(=O)N[C@@H](C)C(=O)N[C@@H](CC(N)=O)C(=O)N[C@@H](CCC(N)=O)C(N)=O [VIIA, FGGFTG(AIB)RKS(AIB)RKLANQ-NH2]",90,significantly higher affinity,efficacious agonist,more potent

# Source: patent US20040259775A1, “Conformationally constrained peptides that bind the ORL-1 receptor” (EURO-CELTIQUE S.A., priority 2002, published 2004)
